Test: Solubility in Disintegration Test 2nd fluid (Test Example 1)
Details: approx. 50 mg in 500 mL Disintegration Test 2nd fluid (Japanese pharmacopoeia, 14th Edition), paddles 50 rpm, concentration by HPLC over time (FIG. 17); compared with crystal form B
Procedure: First, 500 mL of the 2nd fluid was stirred at 50 rpm with paddles (Toyama Co., Ltd.; DISSOLUTION TESTER), then after the crystals and amorphous compound were added, the solution was sampled at each time period. The sampled solutions were filtered through a filter (0.2 μm), and the concentration of 5-[2-amino-4-(2-furyl)pyrimidin-5-yl]-1-methylpyridin-2(1H)-one in the solution was measured by HPLC method. The conditions for HPLC method are shown below.
Column: CAPCELL PAK C18 AQ, S-5 μm, 4.6 mm ID×250 mm length (Shiseido, Japan)
Column temperature: a constant temperature around 30° C.
Detection wavelength: 262 nm
Solution A: acetonitrile/water/1M ammonium acetate (10:1000:1, v/v/v)
Solution B: acetonitrile/water/1M ammonium acetate (900:100:1, v/v/v)

| SMILES | solubility |
| --- | --- |
| Cn1cc(-c2cnc(N)nc2-c2ccco2)ccc1=O [crystal form C, 5-[2-amino-4-(2-furyl)pyrimidin-5-yl]-1-methylpyridin-2(1H)-one] | superior in solubility than the crystal form B |
| Cn1cc(-c2cnc(N)nc2-c2ccco2)ccc1=O.O [hydrate crystals, 5-[2-amino-4-(2-furyl)pyrimidin-5-yl]-1-methylpyridin-2(1H)-one hydrate] | superior in solubility than the crystal form B |
